From patent publication US9421220B2, “Anti-cancer composition comprising alginate” (THE UNIVERSITY OF BIRMINGHAM EDGBASTON, priority 2009, dated 2016)

Tests used:
[1] = test system: cells containing a mutant APC protein; details: cells deficient in the APC protein exposed to iron; cited from earlier work
[2] = test system: normal human colonic cells; details: normal cells exposed to increased levels of iron; cited from earlier work
[3] = test system: Apc^Min/+ mouse; test: Tumour burden in Apc^Min/+ mice; format: in vivo; details: for effect on tumour number, size or tumour burden compared to control mice: Apc^Min/+ mice fed control diet, sub-cutaneous injection
Procedure: To delineate how iron mediates colorectal carcinogenesis in-vivo, further experiments were carried out using the ‘Apc^Min/+’ mouse. These mice carry a mutation which disrupts the ability of the APC tumour suppressor to bind and turnover b-catenin, and the mice develop 100's of benign adenomas.
Apc^Min/+ mice were fed a standard control diet (n=17) or an iron deficient diet (n=11) immediately post weaning with tumour burden being assessed at 80 days of age. In addition mice were fed a high iron diet (standard control diet supplemented with 2% reduced pentacarbonyl iron (Harlan UK)) (n=6) but in these animals tumour burden was assessed at 45 days of age. A fourth group of Apc^Min/+ mice (n=9), were fed the standard control diet but upon reaching 50 days of age were injected sub-cutaneously with iron dextran (50 mgs) with tumour burden being assessed at 85 days of age. A fifth group of Apc^Min/+ mice (n=9), were fed the standard control diet and post weaning were injected daily sub-cutaneously with the systemic iron chelator desferioxamine (200 mgs/kg).

Compound | cellular viability and proliferation [1] | phenotypic effects [2] | effect on tumour number, size or tumour burden compared to control mice [3] | tumour burden ([3]; Apc^Min/+ mice on iron deficient diet co-administered with iron dextran)
[Fe] [iron] | increased | no phenotypic effects | – | –
iron dextran | – | – | no effect | suppression
CC(=O)N(O)CCCCCNC(=O)CCC(=O)N(O)CCCCCNC(=O)CCC(=O)N(O)CCCCCN [desferioxamine] | – | – | no effect | –
